Measurements from US20240269106A1, “SMALL MOLECULE MODULATOR TARGETING A RARE HISTONE MODIFICATION REGULATING ADIPOGENESIS AND PHARMACEUTICAL FORMULATION THEREOF” (COUNCIL OF SCIENTIFIC AND INDUSTRIAL RESEARCH AN INDIAN …, priority 2021, published 2024).

Columns and labels:
[1] = system: histone acetylation and butyrylation in 3T3L1 cells; test: Immunoblotting of histone modification status in 3T3L1; assay type: cell-based; details: 3T3L1 induced to undergo adipogenesis
Procedure: Histones were acid extracted from both undifferentiated and differentiated 3T3L1 for comparison of acetylation and butyrylation levels. For the acid extraction, 3T3L1 cells were washed with ice-cold PBS (supplemented with 5 mm NaBu) and then resuspended in Triton extraction buffer (PBS containing 0.5% Triton X-100 (v/v) and 2 mM PMSF). The cells were allowed to lyse on ice for 10 minutes, spun down, washed with PBS and the process was repeated another time. Then the proteins were acid extracted with 0.2 N HCl for two hours on ice. The debris was spun down and then histones were precipitated by incubating the supernatant with 33% Trichloroacetic acid at 4° C. for 30 minutes. The histones were then pelleted down and then given two washes with acetone. The pellet was allowed to air-dry for 10 minutes and then resuspended with 50 mm Tris-Cl, pH 7.4.
The histones were then run in 15% SDS-PAGE, transferred onto PVDF membrane, blocked with 5% skimmed milk solution to prevent non-specific antibody binding, and finally probed with antibodies against acetylation and butyrylation marks.
Acid extraction of histones was performed from 3T3L1 cells that had been induced to undergo adipogenesis in the absence of any inhibitor (No Inhibitor), in presence of DMSO (solvent control) and in presence of compound of Formula I. The extraction protocol was the same as that described in Example 7.
Histone acetylation levels in 3T3L1 cells that were treated with compound of Formula I were compared with that in DMSO treated and untreated conditions by immunoblotting with antibodies against acetylated histones H3K18, H3K9 and H4K12 (FIG. 7). Histones H3 and H4 were used as loading controls (panel i). Under similar conditions histone butyrylation levels were compared by immunoblotting using antibodies against butyrylated histone H3K23, H4K5 and pan-butyryl lysine (panel ii).

[2] = system: genetically obese db/db mice; test: Body weight gain of genetically obese db/db mice; assay type: in vivo; details: 50 mg/kg oral gavage
Procedure: Male db+/− and genetically obese db/db mice (8 weeks old) were obtained and acclimatized for 1 week prior to experiments. Mice were maintained on a 12-hour light/dark cycle at 22+/−3° C. and a relative humidity of 55% and given ad libitum access to food and water.
The age-matched db+/− and db/db mice were maintained on a standard laboratory pelleted diet and water. db/db mice were oral gavaged (50 mg/kg) with LTK14A in 0.5% carboxymethyl cellulose, equal volume of the vehicle was orally gavaged to control db/db mice for a total period of 30 days. db+/− animals were kept as untreated normal control group. The body weights and feed intake was recorded every week throughout the experimental period. The lean and fat mass of the mice were determined using Echo MRI in live mice on day 15th and day 30th.
Trend of weight gaining after 30 days of genetically obese leptin receptor homozygous mutant mice with compound of Formula I was plotted against that of mutant mice treated with vehicle control and also heterozygous mutant mice (FIG. 10)(panel i). Average weight gain, average fat mass and average lean mass of the mice from the three groups are represented in bar p graphs (panel ii, iii and iv respectively); n=4 in each group:one-way ANOVA with Dunnett's multiple comparison; * P<0.05, ** P<0.01, *** P<0.001, ns: not significant.

[3] = system: histone butyrylation and acetylation in liver and adipose tissue; test: Histone modifications in liver and adipose tissue of db/db mice; assay type: in vivo
Procedure: Liver sample sectioning and immunohistochemical staining was performed using the same protocol as mentioned in example 15. It was observed that H4K5 butyrylation in liver increased in the db/db obese mice liver but was inhibited in presence of compound of Formula I (FIG. 13A). […] Acid extraction of histones was performed from the epididymal fat pads of mice using the same protocol as mentioned in example 7. It was observed that H4K5 butyrylation was reduced in the adipocytes of db/db mice treated with compound of Formula I compared to db/db mice treated with vehicle control (FIG. 13B).

COc1ccc(C(=O)C2=C3OC(C)(C)[C@@H](CC=C(C)C)C[C@@]34C[C@@H](CC=C(C)C)C(C)(C)[C@@](CC=C(C)C)(C2=O)C4=O)cc1OC [Compound X]
H3K23 Bu mark [1]: showed inhibition
H4K5 Bu mark [1]: showed inhibition
histone acetylation (H3K18, H3K9, H4K12) [1]: not found to be affected
effect on fat mass compared to lean mass (Echo MRI) [2]: greater effect on fat mass
body weight ([2]; 30 days): reduction in body weight
H4K5 butyrylation in adipocytes ([3]; epididymal fat pads, immunoblot): reduced
H4K5 butyrylation in liver ([3]; immunohistochemistry): inhibited
H4K12 and H3K14 acetylation in liver ([3]; immunohistochemistry): not affected
